From patent US20220267753A1, “RATIONAL THERAPEUTIC TARGETING OF ONCOGENIC IMMUNE SIGNALING STATES IN MYELOID MALIGNANCIES VIA THE UBIQUITIN CONJUGATING ENZYME UBE2N” (CHILDREN'S HOSPITAL MEDICAL CENTER, priority 2019, published 2022)

Assays:
[1] = molecular target: T1, UBE2D1 (Homo sapiens, UniProt P51668); assay: Thioester bond formation assay; conditions: same biochemical assay
T1 construct: purchased Enzo Life Science BML-UW9050
Experimental: (§1) An in vitro Ubiquitin-E2 thioester (TE) bond formation assay was performed as described (Enzo Life Science, #BML-UW9920-0001, Farmingdale, N.Y.). The reaction was prepared as follows: 10×E2 (UBE2N/Mms2, No. BML-UW9565; UbcH5a, No. BML-UW9050; or UbcH6, Prod. No. BML-UW8710) were incubated with UC-764864 or UC-764865 at 1 or 2 μM for 30 minutes at room temperature. After the incubation period, the following reagents were added to the reaction: distilled water, 10× ubiquitination buffer, inorganic pyrophosphatase solution (100 U/mL in 20 mM Tris-HCl, pH 7.5, Sigma, 83205, St. Louis, Mo.), 50 mM DTT, 0.1 M Mg-ATP, 20×E1 (recombinant human ubiquitin-activating enzyme) and 20× biotinylated ubiquitin to a final volume of 10 p.l. The mixture was incubated for 4 hours at 37° C. The reaction was stopped by adding 10 p.l 2× non-reducing gel loading buffer. 15 p.l of the samples were run on SDS-PAGE gels and transferred to PVDF membrane. […] After washing the membrane for 6×10 mins with TBS-T on a rocking platform, total ubiquitin was detected with ECL detection reagent (Pierce™ ECL Western Blotting Substrate, #32106, Appleton, Wis.) according to the manufacturer's instructions. Detect emitted signal with Biorad ChemiDoc™ MP and analyzed with Image lab software 6.0.1 (Biorad, Hercules, Calif.) or Image J [67]. […]

[2] = molecular target: T2, UBE2E1 (Homo sapiens, UniProt P51965); assay: Thioester bond formation assay; conditions: same biochemical assay
T2 construct: purchased Enzo Life Science BML-UW8710
Experimental: as §1

[3] = system: Cord Blood CD34+; assay: Cell proliferation MTS assay; assay type: cell-based, human
Experimental: AML cell lines (5×10^3 cells/well) were seeded in 96-well plates and grown for 24 to 96 h in serum (10%)-containing medium in the presence or absence of inhibitors at the indicated concentrations. Proliferation was analyzed by means of an MTS assay using the CellTiter 96 Aqueous One Solution Cell Proliferation Assay (Promega, Madison, Wis., USA), according to the manufacturer's instructions. Data are mean with standard deviation from three independent experiments in technical triplicates. For the screening of 160 compounds from the UC library, the cell metabolic activity was assessed at 24 hours of treatment of MOLM-13 cells. Top 15 candidates were re-screened at 2 μM, and the cell metabolic activity was determined at 24 hours of treatment. In certain experiments, cell viability was determined by staining the cells with trypan blue at a 1/2 dilution and counting total number of viable cells upon treatment with UC-764864 or DMSO control. The cells were counted daily for 4 days using an automated cell counter (Countess II FL from Life Technologies). […] UC-764864 was added at the indicated concentrations and cells were incubated with drug for 3 days, at which point cell viability was measured by MTS according to manufacturer's instructions.

[4] = molecular target: T3, UBE2N C87S (Homo sapiens, UniProt P61088, C87S); assay: Differential scanning fluorimetry (DSF); assay type: binding
T3 construct: purchased Genescript
Experimental: (§2) Recombinant UBE2N (2 .tg; Life sensors #UB218) in 3 .tl of buffer containing 20 mM Tris-HCl pH 7.4, 10 mM DTT, 10% glycerol, 150 mM NaCl and 0.02% DMSO as well as six samples of 1 .tg UBE2N mixed with 0.2 .tg of UC-764864 or UC-764865 were diluted to 50 ng/uL in 0.1% formic acid (FA) in preparation of MALDI-TOF analysis. Two .tl aliquots from the samples were used to make a 1:5 dilution with MALDI matrix (5 mg/mL sinapic acid in 60% ACN/0.1% formic acid) with 1 .tL spotted onto the target plate for analysis. For UBE2N C87S mutant, recombinant protein was purchased from Genescript. 2 micrograms of protein as well as 3 samples of UBE2N C87S were mixed with 0.4 micrograms of UC-764864 and UC-764865 in 10 microliters of buffer containing 20 mM Tris HCl pH 7.4, 1 mM DTT, 150 mM NaCl and ˜0.01% of DMSO in each sample. All mixtures were brought up to 40 ul by adding 30 ul of 0.1% formic acid (FA). 5 ul aliquots from the samples were used to make a 1:5 dilution with MALDI matrix as described above. […] The temperature was raised in 1° C. increments from 25° C. to 95° C. and fluorescence was measured at 530 nm. Derivative Tm was determined using Protein Thermal Shift Software version 1.3 by Applied Biosystems and then were analyzed with Prism 6 (GraphPad Software Inc.).

[5] = molecular target: T4, UBE2N wild type (Homo sapiens, UniProt P61088); assay: Differential scanning fluorimetry (DSF); assay type: binding; conditions: recombinant UBE2N protein
T4 construct: purchased Life sensors UB218
T4 sequence (P61088 1-152): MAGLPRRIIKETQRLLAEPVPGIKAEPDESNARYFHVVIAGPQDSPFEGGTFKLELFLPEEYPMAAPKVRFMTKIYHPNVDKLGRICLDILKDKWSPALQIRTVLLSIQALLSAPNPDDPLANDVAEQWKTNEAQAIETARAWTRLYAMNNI
Experimental: as §2

T1 sequence (P51668 whole entry): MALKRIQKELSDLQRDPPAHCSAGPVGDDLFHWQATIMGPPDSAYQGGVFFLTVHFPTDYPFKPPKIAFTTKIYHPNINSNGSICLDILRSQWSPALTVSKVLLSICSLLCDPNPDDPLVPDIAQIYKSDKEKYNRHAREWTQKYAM
T2 sequence (P51965 whole entry): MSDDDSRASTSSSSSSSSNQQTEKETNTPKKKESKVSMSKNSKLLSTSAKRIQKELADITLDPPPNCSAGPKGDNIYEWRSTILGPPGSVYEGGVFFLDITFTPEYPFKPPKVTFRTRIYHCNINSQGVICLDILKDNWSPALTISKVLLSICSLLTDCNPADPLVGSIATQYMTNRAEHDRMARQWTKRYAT
T3 sequence (P61088 whole entry C87S): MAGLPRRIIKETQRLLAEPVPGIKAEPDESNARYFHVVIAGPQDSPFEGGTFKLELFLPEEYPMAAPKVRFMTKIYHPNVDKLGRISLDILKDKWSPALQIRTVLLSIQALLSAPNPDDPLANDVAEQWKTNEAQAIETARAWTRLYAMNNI

| Compound | interference with activity of UBE2D1 [1] | interference with activity of UBE2E1 [2] | proliferation capacity of cord blood CD34+ cells [3] | IC50 ([3]; Homo sapiens, Cord Blood CD34+, MTS, 24 hours) | change in Tm of UBE2N(C87S) [4] | change in melting temperature (Tm) [5] |
| --- | --- | --- | --- | --- | --- | --- |
| CCc1ccc(C(=O)C=CSc2nc3ccc(C)cc3[nH]2)cc1 [UC-764864, 1-(4-ethylphenyl)-3-[(6-methyl-1H-benzimidazol-2-yl)sulfanyl]prop-2-en-1-one] | did not interfere | did not interfere | did not affect | > 10 µM |  |  |
| COc1ccc(C(=O)C=CSc2nc3ccc(C)cc3[nH]2)cc1 [UC-764865, 1-(4-methoxyphenyl)-3-[(6-methyl-1H-benzimidazol-2-yl)sulfanyl]prop-2-en-1-one] |  |  |  |  | did not change | −2 C degrees |
